This note sets out measurements from patent US12310975B2, “Modulators of BCL6 proteolysis and associated methods of use” (Arvinas Operations, Inc., priority 2019, dated 2025).

The target of the assay is BCL6 (Homo sapiens (Human), UniProt P41182). Description: Immunofluorescence high content imaging of BCL6 degradation in T47D cells. It is filed as cell-based. The following applies: for Dmax: T47D. The method, boiled down: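 T47D cells were treated 3 days at 37 °C with an 11-point 3-fold dilution series (top 0.1 or 1 μM), then fixed, permeabilized and immunostained for BCL6 with Alexa-488 secondary, CellMask and Hoechst. BCL6 signal was imaged at 10×, 4 fields/well, with top-hat smoothing.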

The IC50 is the concentration that gives 50% inhibition. A higher IC50 goes with weaker potency. In general, Dmax refers to the greatest extent of degradation seen. Higher therefore signals a fuller loss of target. The compound `CC(=O)COc1cc2cc(Nc3nc(N4CCN(C(C)(C)C5CCN(c6ccc7c(c6)C(=O)N(C6CCC(=O)NC6=O)C7=O)CC5)CC4)ncc3Cl)ccc2n(C)c1=O` (stereo not drawn) [compound 257, 5-(4-(2-(4-(5-chloro-4-((1-methyl-2-oxo-3-(2-oxopropoxy)-1,2-dihydroquinolin-6-yl)amino)pyrimidin-2-yl)piperazin-1-yl)propan-2-yl)piperidin-1-yl)-2-(2,6-dioxopiperidin-3-yl)isoindoline-1,3-dione] yielded a half-inhibitory concentration (IC50) of 10 to 50 nM and a Dmax not below 70%. Take `CN1CC[C@@H](Oc2cc3cc(Nc4nc(N5CCC(CN6CCN(c7ccc8c(c7)C(=O)N(C7CCC(=O)NC7=O)C8=O)CC6)CC5)ncc4Cl)ccc3n(C)c2=O)C1=O` (stereo partly drawn) [compound 258, 5-(4-((1-(5-chloro-4-((1-methyl-3-(((R)-1-methyl-2-oxopyrrolidin-3-yl)oxy)-2-oxo-1,2-dihydroquinolin-6-yl)amino)pyrimidin-2-yl)piperidin-4-yl)methyl)piperazin-1-yl)-2-(2,6-dioxopiperidin-3-yl)isoindoline-1,3-dione]: the IC50 is not below 100 nM.

As for `CN1CC[C@H](Oc2cc3cc(Nc4nc(N5CCC(CN6CCN(c7ccc8c(c7)C(=O)N(C7CCC(=O)NC7=O)C8=O)CC6)CC5)ncc4Cl)ccc3n(C)c2=O)C1=O` (stereo partly drawn) [compound 259, 5-(4-((1-(5-chloro-4-((1-methyl-3-(((S)-1-methyl-2-oxopyrrolidin-3-yl)oxy)-2-oxo-1,2-dihydroquinolin-6-yl)amino)pyrimidin-2-yl)piperidin-4-yl)methyl)piperazin-1-yl)-2-(2,6-dioxopiperidin-3-yl)isoindoline-1,3-dione], the IC50 is not below 100 nM and the greatest degradation seen (Dmax) was less than 50%.

Turning to `CNC(=O)COc1cc2cc(Nc3nc(N4CCC(CN5CCN(c6cccc7c6C(=O)N(C6CCC(=O)NC6=O)C7=O)CC5)CC4)ncc3Cl)ccc2n(C)c1=O` (stereo not drawn) [compound 260, 2-((6-((5-chloro-2-(4-((4-(2-(2,6-dioxopiperidin-3-yl)-1,3-dioxoisoindolin-4-yl)piperazin-1-yl)methyl)piperidin-1-yl)pyrimidin-4-yl)amino)-1-methyl-2-oxo-1,2-dihydroquinolin-3-yl)oxy)-N-methylacetamide], the half-maximal inhibitory concentration (IC50) was in the range of 10 to 50 nM and the Dmax is not below 70%. In the same order, the values of `CNC(=O)CNc1cc2cc(Nc3nc(N4CCN(CC5CCN(c6ccc7c(c6)C(=O)N(C6CCC(=O)NC6=O)C7=O)CC5)CC4)ncc3Cl)ccc2n(C)c1=O` (stereo not drawn) [compound 262, 2-((6-((5-chloro-2-(4-((1-(2-(2,6-dioxopiperidin-3-yl)-1,3-dioxoisoindolin-5-yl)piperidin-4-yl)methyl)piperazin-1-yl)pyrimidin-4-yl)amino)-1-methyl-2-oxo-1,2-dihydroquinolin-3-yl)amino)-N-methylacetamide] are less than 10 nM and not below 70%. The matching figures for `CNC(=O)COc1cc2cc(Nc3nc(N4CCC(OC5CCN(c6cccc7c6C(=O)N(C6CCC(=O)NC6=O)C7=O)CC5)CC4)ncc3Cl)ccc2n(C)c1=O` (stereo not drawn) [compound 264, 2-((6-((5-chloro-2-(4-((1-(2-(2,6-dioxopiperidin-3-yl)-1,3-dioxoisoindolin-4-yl)piperidin-4-yl)oxy)piperidin-1-yl)pyrimidin-4-yl)amino)-1-methyl-2-oxo-1,2-dihydroquinolin-3-yl)oxy)-N-methylacetamide]: less than 10 nM and not below 70%. In the same order, the values of `CONC(=O)COc1cc2cc(Nc3cc(N4CCN(C(C)(C)C5CCN(c6ccc7c(c6)C(=O)N(C6CCC(=O)NC6=O)C7=O)CC5)CC4)ncc3Cl)ccc2n(C)c1=O` (stereo not drawn) [compound 265, 2-((6-((5-chloro-2-(4-(2-(1-(2-(2,6-dioxopiperidin-3-yl)-1,3-dioxoisoindolin-5-yl)piperidin-4-yl)propan-2-yl)piperazin-1-yl)pyridin-4-yl)amino)-1-methyl-2-oxo-1,2-dihydroquinolin-3-yl)oxy)-N-methoxyacetamide] are 10 to 50 nM and 50 to 70%. Turning to `CNC(=O)COc1cc2cc(Nc3nc(N4CCN(C(C)(C)C5CCN(c6cccc7c6C(=O)N(C6CCC(=O)NC6=O)C7=O)CC5)CC4)ncc3Cl)ccc2n(C)c1=O` (stereo not drawn) [compound 266, 2-((6-((5-chloro-2-(4-(2-(1-(2-(2,6-dioxopiperidin-3-yl)-1,3-dioxoisoindolin-4-yl)piperidin-4-yl)propan-2-yl)piperazin-1-yl)pyrimidin-4-yl)amino)-1-methyl-2-oxo-1,2-dihydroquinolin-3-yl)oxy)-N-methylacetamide], the 50% inhibitory concentration (IC50) was less than 10 nM and the Dmax was not below 70%. In turn, `Cn1c(=O)c(-c2nnc[nH]2)cc2cc(Nc3nc(N4CCC(CN5CCN(c6ccc7c(c6)C(=O)N(C6CCC(=O)NC6=O)C7=O)CC5)CC4)ncc3Cl)ccc21` (stereo not drawn) [compound 282, 5-(4-{[1-(5-chloro-4-{[1-methyl-2-oxo-3-(4H-1,2,4-triazol-3-yl)-1,2-dihydroquinolin-6-yl]amino}pyrimidin-2-yl)piperidin-4-yl]methyl}piperazin-1-yl)-2-(2,6-dioxopiperidin-3-yl)-2,3-dihydro-1H-isoindole-1,3-dione] gave an IC50 not below 100 nM. `CNC(=O)COc1cc2cc(Nc3nc(N4CCC(CN5CCC(n6cnc7c(C(=O)NC8CCC(=O)NC8=O)cccc76)CC5)CC4)ncc3Cl)ccc2n(C)c1=O` (stereo not drawn) [compound 283, 1-[1-({1-[5-chloro-4-({1-methyl-3-[(methylcarbamoyl)methoxy]-2-oxo-1,2-dihydroquinolin-6-yl}amino)pyrimidin-2-yl]piperidin-4-yl}methyl)piperidin-4-yl]-N-(2,6-dioxopiperidin-3-yl)-1H-1,3-benzodiazole-4-carboxamide] came in with a 50% inhibitory concentration (IC50) not below 100 nM.

`CNC(=O)COc1cc2cc(Nc3nc(N4C[C@@H](C)N(CC5CCN(c6ccc(C(=O)NC7CCC(=O)NC7=O)c(F)c6)CC5)[C@@H](C)C4)ncc3Cl)ccc2n(C)c1=O` (stereo partly drawn) [compound 284, 4-(4-{[(2R,6S)-4-[5-chloro-4-({1-methyl-3-[(methylcarbamoyl)methoxy]-2-oxo-1,2-dihydroquinolin-6-yl}amino)pyrimidin-2-yl]-2,6-dimethylpiperazin-1-yl]methyl}piperidin-1-yl)-N-(2,6-dioxopiperidin-3-yl)-2-fluorobenzamide] gave an IC50 of 10 to 50 nM and a Dmax of less than 50%.

Consider `Cc1nnc(-c2cc3cc(Nc4nc(N5CCN(C(C)(C)C6CCN(c7ccc8c(c7)C(=O)N(C7CCC(=O)NC7=O)C8=O)CC6)CC5)ncc4Cl)ccc3n(C)c2=O)o1` (stereo not drawn) [compound 285, 5-(4-{2-[4-(5-chloro-4-{[1-methyl-3-(5-methyl-1,3,4-oxadiazol-2-yl)-2-oxo-1,2-dihydroquinolin-6-yl]amino}pyrimidin-2-yl)piperazin-1-yl]propan-2-yl}piperidin-1-yl)-2-(2,6-dioxopiperidin-3-yl)-2,3-dihydro-1H-isoindole-1,3-dione], for which the IC50 fell in the range of 10 to 50 nM and the maximal degradation (Dmax) was less than 50%.

Consider `CNC(=O)COc1cc2cc(Nc3nc(N4CCC(CN5CCC(c6coc(C(=O)NC7CCC(=O)NC7=O)c6)CC5)CC4)ncc3Cl)ccc2n(C)c1=O` (stereo not drawn) [compound 286, 4-[1-({1-[5-chloro-4-({1-methyl-3-[(methylcarbamoyl)methoxy]-2-oxo-1,2-dihydroquinolin-6-yl}amino)pyrimidin-2-yl]piperidin-4-yl}methyl)piperidin-4-yl]-N-(2,6-dioxopiperidin-3-yl)furan-2-carboxamide], for which the IC50 fell in the range of 50 to 100 nM and the maximal degradation (Dmax) was less than 50%. `CNC(=O)CCC1Oc2cc(Nc3nc(N4CCN(C(C)(C)C5CCN(c6ccc7c(c6)C(=O)N(C6CCC(=O)NC6=O)C7=O)CC5)CC4)ncc3Cl)ccc2N(C)C1=O` (stereo not drawn) [compound 287, 3-[7-({5-chloro-2-[4-(2-{1-[2-(2,6-dioxopiperidin-3-yl)-1,3-dioxo-2,3-dihydro-1H-isoindol-5-yl]piperidin-4-yl}propan-2-yl)piperazin-1-yl]pyrimidin-4-yl}amino)-4-methyl-3-oxo-3,4-dihydro-2H-1,4-benzoxazin-2-yl]-N-methylpropanamide] came in with a 50% inhibitory concentration (IC50) not below 100 nM. `CNC(=O)COc1cc2cc(Nc3nc(N4CCC(CN5[C@H](C)CN(c6ccc(C(=O)NC7CCC(=O)NC7=O)c(F)c6)C[C@@H]5C)CC4)ncc3Cl)ccc2n(C)c1=O` (stereo partly drawn) [compound 288, 4-[(3R,5S)-4-({1-[5-chloro-4-({1-methyl-3-[(methylcarbamoyl)methoxy]-2-oxo-1,2-dihydroquinolin-6-yl}amino)pyrimidin-2-yl]piperidin-4-yl}methyl)-3,5-dimethylpiperazin-1-yl]-N-(2,6-dioxopiperidin-3-yl)-2-fluorobenzamide]: the IC50 lay in the range of 50 to 100 nM and the maximal degradation (Dmax) lay in the range of 50 to 70%. In the same order, the values of `CNC(=O)COc1cc2cc(Nc3nc(N4CCC(CN5CCC(c6ccc7c(c6)C(=O)N(C6CCC(=O)NC6=O)C7=O)CC5)CC4)ncc3Cl)ccc2n(C)c1=O` (stereo not drawn) [compound 289, 2-{[6-({5-chloro-2-[4-({4-[2-(2,6-dioxopiperidin-3-yl)-1,3-dioxo-2,3-dihydro-1H-isoindol-5-yl]piperidin-1-yl}methyl)piperidin-1-yl]pyrimidin-4-yl}amino)-1-methyl-2-oxo-1,2-dihydroquinolin-3-yl]oxy}-N-methylacetamide] are 10 to 50 nM and not below 70%.

Take `CNC(=O)COc1cc2cc(Nc3nc(N4CCN(C(C)(C)C5CCN(c6cccc(C(=O)NC7CCC(=O)NC7=O)c6F)CC5)CC4)ncc3Cl)ccc2n(C)c1=O` (stereo not drawn) [compound 291, 3-[4-(2-{4-[5-chloro-4-({1-methyl-3-[(methylcarbamoyl)methoxy]-2-oxo-1,2-dihydroquinolin-6-yl}amino)pyrimidin-2-yl]piperazin-1-yl}propan-2-yl)piperidin-1-yl]-N-(2,6-dioxopiperidin-3-yl)-2-fluorobenzamide]: the IC50 fell in the range of 10 to 50 nM and the Dmax is not below 70%.
